Assay results from PMC6102536, “A Metabolism-Based Synergy for Total Coumarin Extract of Radix Angelicae Dahuricae and Ligustrazine on Migraine Treatment in Rats” (Molecules : A Journal of Synthetic Chemistry and Natural …, 2018).
Read-outs that look alike come from different tables or passages of the source.

Columns and labels:
Assay in all cases: P450-Glo inhibition assay, recombinant CYP
Assay type in all cases: biochemical
CYP2C9 = target: T1, CYP2C9 (Homo sapiens, UniProt P11712)
T1 construct: recombinant CYP450, commercial (Research Institute for Liver Diseases, Shanghai); P450-Glo Screening System (Promega)
T1 sequence (P11712 whole entry): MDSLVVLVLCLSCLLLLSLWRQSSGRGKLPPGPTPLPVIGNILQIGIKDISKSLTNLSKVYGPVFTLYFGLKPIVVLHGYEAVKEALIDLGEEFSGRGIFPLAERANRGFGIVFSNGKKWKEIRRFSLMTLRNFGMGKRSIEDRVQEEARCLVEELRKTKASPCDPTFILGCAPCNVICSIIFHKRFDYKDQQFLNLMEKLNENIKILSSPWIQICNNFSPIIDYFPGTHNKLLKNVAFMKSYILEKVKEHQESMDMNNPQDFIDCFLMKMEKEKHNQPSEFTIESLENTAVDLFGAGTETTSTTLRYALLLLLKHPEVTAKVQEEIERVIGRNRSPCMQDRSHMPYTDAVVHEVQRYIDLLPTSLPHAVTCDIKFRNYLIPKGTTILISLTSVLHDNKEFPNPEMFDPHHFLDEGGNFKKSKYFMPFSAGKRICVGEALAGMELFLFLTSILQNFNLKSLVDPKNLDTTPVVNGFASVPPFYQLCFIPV

CYP2C19 = target: T2, CYP2C19 (Homo sapiens, UniProt P33261)
T2 construct: recombinant CYP450, commercial (Research Institute for Liver Diseases, Shanghai); P450-Glo Screening System (Promega)
T2 sequence (P33261 whole entry): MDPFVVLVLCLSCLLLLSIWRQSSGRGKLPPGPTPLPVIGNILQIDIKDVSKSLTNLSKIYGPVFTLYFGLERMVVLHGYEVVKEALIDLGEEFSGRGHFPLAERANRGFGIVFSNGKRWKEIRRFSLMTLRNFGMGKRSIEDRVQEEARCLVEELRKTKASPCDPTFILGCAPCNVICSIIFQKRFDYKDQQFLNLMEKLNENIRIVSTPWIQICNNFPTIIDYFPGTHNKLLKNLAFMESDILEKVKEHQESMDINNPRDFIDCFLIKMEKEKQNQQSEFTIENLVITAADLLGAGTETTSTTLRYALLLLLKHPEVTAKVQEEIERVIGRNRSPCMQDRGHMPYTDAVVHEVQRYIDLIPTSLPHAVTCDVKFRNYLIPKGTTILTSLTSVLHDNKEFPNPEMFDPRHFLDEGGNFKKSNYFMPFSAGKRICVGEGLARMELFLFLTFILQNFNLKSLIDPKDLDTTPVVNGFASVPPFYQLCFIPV

CYP2D6 = target: T3, CYP2D6 (Homo sapiens, UniProt P10635)
T3 construct: recombinant CYP450, commercial (Research Institute for Liver Diseases, Shanghai); P450-Glo Screening System (Promega)
T3 sequence (P10635 whole entry): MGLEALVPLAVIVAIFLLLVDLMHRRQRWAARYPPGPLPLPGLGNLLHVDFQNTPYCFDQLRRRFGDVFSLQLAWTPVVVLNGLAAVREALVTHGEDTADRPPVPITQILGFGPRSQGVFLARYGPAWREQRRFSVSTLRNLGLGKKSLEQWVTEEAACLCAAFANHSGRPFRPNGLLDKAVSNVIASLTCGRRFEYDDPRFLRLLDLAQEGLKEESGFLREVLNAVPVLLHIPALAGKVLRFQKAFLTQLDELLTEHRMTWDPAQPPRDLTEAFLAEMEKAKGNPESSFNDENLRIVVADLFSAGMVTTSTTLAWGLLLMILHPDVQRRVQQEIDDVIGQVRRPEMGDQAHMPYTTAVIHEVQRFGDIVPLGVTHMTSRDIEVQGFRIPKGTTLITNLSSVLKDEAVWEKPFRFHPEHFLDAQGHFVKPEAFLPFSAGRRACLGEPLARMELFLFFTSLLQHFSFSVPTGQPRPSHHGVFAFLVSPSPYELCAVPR

CYP1A2 = target: T4, CYP1A2 (Homo sapiens, UniProt P05177)
T4 construct: recombinant CYP450, commercial (Research Institute for Liver Diseases, Shanghai); P450-Glo Screening System (Promega)
T4 sequence (P05177 2-516): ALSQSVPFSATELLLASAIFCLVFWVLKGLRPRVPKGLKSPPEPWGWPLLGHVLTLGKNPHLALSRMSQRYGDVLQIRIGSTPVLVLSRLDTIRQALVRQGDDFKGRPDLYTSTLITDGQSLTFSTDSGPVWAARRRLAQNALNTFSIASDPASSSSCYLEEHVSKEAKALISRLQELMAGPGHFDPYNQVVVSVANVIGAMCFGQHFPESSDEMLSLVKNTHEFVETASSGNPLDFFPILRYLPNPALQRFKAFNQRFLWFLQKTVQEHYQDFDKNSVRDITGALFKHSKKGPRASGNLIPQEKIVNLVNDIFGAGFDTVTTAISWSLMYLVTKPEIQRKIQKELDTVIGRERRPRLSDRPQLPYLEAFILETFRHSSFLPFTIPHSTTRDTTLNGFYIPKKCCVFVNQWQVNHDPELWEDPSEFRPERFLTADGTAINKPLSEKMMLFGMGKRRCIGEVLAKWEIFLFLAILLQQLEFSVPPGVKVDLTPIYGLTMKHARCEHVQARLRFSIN

CYP3A4 = target: T5, CYP3A4 (Homo sapiens, UniProt P08684); details: read-out: IC50 (μM) (95% Confidence Interval) / Isoimperatorin
T5 construct: recombinant CYP450, commercial (Research Institute for Liver Diseases, Shanghai); P450-Glo Screening System (Promega)
T5 sequence (P08684 2-503): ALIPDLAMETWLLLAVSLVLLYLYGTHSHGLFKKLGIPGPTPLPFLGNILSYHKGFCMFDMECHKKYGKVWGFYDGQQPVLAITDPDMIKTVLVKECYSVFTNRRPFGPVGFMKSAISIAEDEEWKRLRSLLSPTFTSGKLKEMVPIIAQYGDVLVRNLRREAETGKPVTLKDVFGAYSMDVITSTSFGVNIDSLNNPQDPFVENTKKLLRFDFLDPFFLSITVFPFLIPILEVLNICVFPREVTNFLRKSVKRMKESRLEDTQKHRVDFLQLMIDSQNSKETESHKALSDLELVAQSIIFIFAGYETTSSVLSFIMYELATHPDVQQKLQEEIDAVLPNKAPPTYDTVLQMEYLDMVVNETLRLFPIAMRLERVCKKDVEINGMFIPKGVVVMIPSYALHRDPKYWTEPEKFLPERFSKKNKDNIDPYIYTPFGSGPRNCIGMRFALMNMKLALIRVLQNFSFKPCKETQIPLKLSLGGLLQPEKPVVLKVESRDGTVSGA

[1] = read-out: IC50 (μM) (95% Confidence Interval) / Isoimperatorin

| IC50 (CYP3A4) [µM] | IC50 (CYP2C9; [1]) [µM] | IC50 (CYP2C19; [1]) [µM] | IC50 (CYP2D6; [1]) [µM] | IC50 (CYP1A2; [1]) [µM] | SMILES | IC50 (CYP2C9) [µM] | IC50 (CYP2C19) [µM] | IC50 (CYP2D6) [µM] | IC50 (CYP1A2) [µM] |
| --- | --- | --- | --- | --- | --- | --- | --- | --- | --- |
| – | – | – | – | – | CC(C)=CCOc1c2occc2cc2ccc(=O)oc12 [imperatorin] | 4.81 | 83.3 | 9.1 | 0.08 |
| 1.47 | 5.69 | 19.6 | 1.56 | 8.26 | CC(C)=CCOc1c2ccoc2cc2oc(=O)ccc12 [isoimperatorin] | – | – | – | – |
